Results as given in patent publication US12187684B2, “Benzimidazole derivatives as modulators of retinoid-related orphan receptor gamma (RORγ) and pharmaceutical use thereof” (Jiangsu Hengrui Medicine Co., Ltd., priority 2018, dated 2025).

How the values were obtained:
RORγ LBD-GST tagged = target: T1, RORγ LBD-GST tagged (Homo sapiens, UniProt P51449); assay: LanthaScreen TR-FRET RORγ coactivator assay; type: biochemical; conditions: Fluorescein-D22 coactivator peptide, 1 hour room temperature
T1 construct: RORγ LBD-GST tagged (Cat No. RORC-114H, Creative Biomart); purchased Creative Biomart RORC-114H
T1 sequence (P51449 269-508 limits assumed): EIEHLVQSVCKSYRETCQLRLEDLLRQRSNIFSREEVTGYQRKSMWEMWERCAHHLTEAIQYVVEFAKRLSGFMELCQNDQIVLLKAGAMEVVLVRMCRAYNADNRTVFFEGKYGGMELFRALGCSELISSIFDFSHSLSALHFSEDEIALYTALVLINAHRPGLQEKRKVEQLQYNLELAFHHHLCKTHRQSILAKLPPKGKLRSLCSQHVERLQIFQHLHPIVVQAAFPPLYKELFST
How it was run: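 GST-tagged RORγ LBD (25 ng/reaction) was incubated in coregulator buffer D with 5 mM DTT and compound (top 3 μM, 7-fold steps, 7 doses), then with a mix containing 0.6 μM fluorescein-D22 peptide and 8 nM Tb anti-GST antibody. After 1 h at room temperature in the dark, 520/495 nm TR-FRET was read. IC50 came from log concentration versus percent inhibition.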

[1] = tested on: IL-17 production, human PBMC cells; assay: IL-17 production assay using human PBMC; type: cell-based; conditions: human PBMC stimulated by cytostim for 3 days, IL-17 ELISA of supernatant
How it was run: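 Cryopreserved human PBMCs, 1×10^5 per well in TexMACS, were treated with compound or vehicle (<0.5% DMSO) and stimulated with Cytostim (10 μL/mL) for 3 days at 37 °C. Supernatant IL-17 was measured by ELISA. IC50 was taken from concentration versus percent inhibition.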

SMILES | IC50 (RORγ LBD-GST tagged) | IC50 ([1]; Homo sapiens, PBMC, 72 h) | IC50 [1]
O=S(=O)(CC1CC1)c1ccc(C(CCO)c2nc3cc(Cl)c(N4CCC(F)(F)CC4)c(Cl)c3[nH]2)cc1 (single isomer, unassigned) [3-(4-((cyclopropylmethyl)sulfonyl)phenyl)-3-(5,7-dichloro-6-(4,4-difluoropiperidin-1-yl)-1H-benzo[d]imidazol-2-yl)propan-1-ol] | 0.003 µM | 0.006 µM | –
O=S(=O)(CC1CC1)c1ccc(C(CCO)c2nc3cc(Cl)c(N4CCC(F)(F)CC4)c(Cl)c3[nH]2)cc1 (single isomer, unassigned) [the longer retention time of 160 and 161, 3-(4-((cyclopropylmethyl)sulfonyl)phenyl)-3-(5,7-dichloro-6-(4,4-difluoropiperidin-1-yl)-1H-benzo[d]imidazol-2-yl)propan-1-ol] | 0.003 µM | – | 0.004 µM
CCS(=O)(=O)c1ccc(C(O)c2nc3c(Cl)c(-c4ccccc4OC(F)(F)F)c(Cl)cc3[nH]2)c(F)c1 (stereo not shown) [Example 78, (4,6-dichloro-5-(2-(trifluoromethoxy)phenyl)-1H-benzo[d]imidazol-2-yl)(4-(ethylsulfonyl)-2-fluorophenyl)methanol] | 0.028 µM | 0.069 µM | –
CCS(=O)(=O)c1ccc(C(CO)c2nc3c(Cl)c(-c4ccccc4OC(C)C)c(Cl)cc3[nH]2)cc1 (stereo not shown) [Example 9, 2-(4,6-dichloro-5-(2-isopropoxyphenyl)-1H-benzo[d]imidazol-2-yl)-2-(4-(ethylsulfonyl)phenyl)ethanol] | 0.475 µM | 0.01 µM | –
CCS(=O)(=O)c1ccc(Cc2nc3c(Cl)c(-c4ccccc4OCCOC)c(Cl)cc3[nH]2)cc1 [Example 19, 4,6-dichloro-2-(4-(ethylsulfonyl)benzyl)-5-(2-(2-methoxyethoxy)phenyl)-1H-benzo[d]imidazole] | 0.052 µM | 0.343 µM | –
O=S(=O)(CC1CC1)c1ccc(C(O)c2nc3c(Cl)c(-c4ccccc4OC(F)F)c(Cl)cc3[nH]2)c(F)c1 (stereo not shown) [Example 100, (4-((cyclopropylmethyl)sulfonyl)-2-fluorophenyl)(4,6-dichloro-5-(2-(difluoromethoxy)phenyl)-1H-benzo[d]imidazol-2-yl)methanol] | 0.014 µM | 0.0013 µM | –
CCS(=O)(=O)c1ccc(C(O)c2nc3c(Cl)c(-c4ccccc4OCC(F)(F)F)c(Cl)cc3[nH]2)cc1 (stereo not shown) [Example 33, (4,6-dichloro-5-(2-(2,2,2-trifluoroethoxy)phenyl)-1H-benzo[d]imidazol-2-yl)(4-(ethylsulfonyl)phenyl)methanol] | 0.031 µM | 0.015 µM | –

The next lines start with results.

IC50 (RORγ LBD-GST tagged) | SMILES | IC50 ([1]; Homo sapiens, PBMC, 72 h) | IC50 [1]
0.047 µM | CC(=O)NCCC(c1ccc(S(=O)(=O)CC2CC2)cc1)c1nc2cc(-c3ccccc3OC(F)F)c(Cl)cc2[nH]1 (single isomer, unassigned) [166 or 167 made from Int-164B, (R or S)—N-(3-(6-chloro-5-(2-(difluoromethoxy)phenyl)-1H-benzo[d]imidazol-2-yl)-3-(4-((cyclopropylmethyl)sulfonyl)phenyl)propyl)acetamide] | – | 0.072 µM
0.01 µM | NC(=O)CC(c1ccc(S(=O)(=O)CC2CC2)cc1)c1nc2cc(Cl)c(-c3ccccc3OC(F)F)cc2[nH]1 (stereo not shown) [Example 141, 3-(5-chloro-6-(2-(difluoromethoxy)phenyl)-1H-benzo[d]imidazol-2-yl)-3-(4-((cyclopropylmethyl)sulfonyl)phenyl)propanamide] | 0.02 µM | –
0.024 µM | CC(C)Oc1ccccc1-c1c(Cl)cc2nc(C(O)c3ccc(S(=O)(=O)CC4CC4)cc3)[nH]c2c1Cl (stereo not shown) [Example 133, (4-((cyclopropylmethyl)sulfonyl)phenyl)(5,7-dichloro-6-(2-isopropoxyphenyl)-1H-benzo[d]imidazol-2-yl)methanol] | 0.027 µM | –
0.083 µM | CC(C)Oc1ccccc1-c1cc2nc(C(CC(N)=O)c3ccc(S(=O)(=O)CC4CC4)cc3)[nH]c2cc1Cl (single isomer, unassigned) [the longer retention time of 148 and 149, 3-(6-chloro-5-(2-isopropoxyphenyl)-1H-benzo[d]imidazol-2-yl)-3-(4-((cyclopropylmethyl)sulfonyl)phenyl)propanamide] | – | 0.022 µM
